Experimental data reported in patent US9062041B2 (Bayer Intellectual Property GmbH, priority 2011, dated 2015).
Read-outs that look alike come from different tables or passages of the source.

Legend:
[1] = molecular target: EP2 subtype of the human PGE2 receptor (Homo sapiens, UniProt P43116); assay: cAMP antagonism test on the human EP2 receptor (HTRF cAMP detection); format: cell-based; settings: hEP2 receptor
Method in brief: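 Read-out is a competitive HTRF for cAMP: lysate cAMP displaces cAMP-d2 from Eu cryptate-labelled antibody, and antagonism raises the 665/620 nm ratio. Compound (0.8 nM–16.5 μM) added to EP2 cells 20 min at RT before 60 min PGE2 challenge (3× stock 1.5 nM) with IBMX, followed by 20 min lysis.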

[2] = molecular target: EP4 subtype of the human PGE2 receptor (Homo sapiens, UniProt P35408); assay: cAMP antagonism test on the human EP4 receptor (HTRF cAMP detection); format: cell-based; settings: selectivity towards hEP4, IC50 measured by cAMP antagonism test
Chain of EP4 subtype of the human PGE2 receptor (P35408 whole entry): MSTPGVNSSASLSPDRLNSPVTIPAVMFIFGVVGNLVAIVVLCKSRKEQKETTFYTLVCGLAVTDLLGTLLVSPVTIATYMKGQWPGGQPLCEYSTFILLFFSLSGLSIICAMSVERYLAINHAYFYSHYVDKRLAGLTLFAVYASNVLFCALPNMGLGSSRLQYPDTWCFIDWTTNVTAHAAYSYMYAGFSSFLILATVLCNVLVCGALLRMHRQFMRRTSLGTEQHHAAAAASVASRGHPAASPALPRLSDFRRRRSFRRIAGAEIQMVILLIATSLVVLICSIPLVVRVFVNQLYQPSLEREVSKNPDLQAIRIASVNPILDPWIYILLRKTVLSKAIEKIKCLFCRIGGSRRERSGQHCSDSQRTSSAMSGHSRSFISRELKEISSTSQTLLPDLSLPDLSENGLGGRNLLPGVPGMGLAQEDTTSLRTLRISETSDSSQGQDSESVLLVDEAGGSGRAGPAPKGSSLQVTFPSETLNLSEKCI
Method in brief: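 Competitive HTRF cAMP read-out (cAMP-d2 vs Eu-cryptate anti-cAMP antibody, 665/620 nm ratio) on lysed human EP4 cells. Compound (0.8 nM–16.5 μM) applied 20 min at RT before 60 min PGE2 challenge (3× solution 0.3 nM, IBMX present); 20 min lysis precedes reading.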

cumulus-oocyte complexes = assay: Cumulus expansion test in vitro; format: cell-based, mice (strain: B6D2F1); settings: for inhibition at 1 µM / inhibition at 0.5 µM: Mus musculus, 0.3 μM PGE2 for stimulation; for inhibition at 1 µM: read-out: % reduction at 1 μM (reduction in the cumulus expansion); for inhibition at 0.5 µM: read-out: % reduction at 0.5 μm (reduction in the cumulus expansion)
Experimental: 4.2. Cumulus Expansions Test In Vitro In immature female mice (strain: B6D2F1 from Charles River), at an age of 14-18 days, the folliculogenesis was induced by a single administration (intraperitoneal) of 10 IU of PMSG (pregnant mare serum gonadotropin; Sigma G-4877, Lot 68H0909). 47-50 hours after the injection, the ovaries were removed and the cumulus-oocyte complexes removed. At this stage, the cumulus complex is not yet expanded. The cumulus-oocyte complexes were now incubated for 20-24 hours with prostaglandin E2 (PGE) (0.3 μM), vehicle control (ethanol) or test substances. Medium: alpha-MEM medium with 0.1 mM IBMX, pyruvate (0.23 mM), glutamine (2 mM), pen/strep 100 IU/ml pen. and 100 μg/ml strep.), HSA (8 mg/ml) and foetal bovine serum (FBS, 10%). The cumulus expansion was then established through the subdivision into four stages (after Vanderhyden et al. Dev Biol. 1990 August; 140(2):307-317).

Chain of EP2 subtype of the human PGE2 receptor (P43116 whole entry): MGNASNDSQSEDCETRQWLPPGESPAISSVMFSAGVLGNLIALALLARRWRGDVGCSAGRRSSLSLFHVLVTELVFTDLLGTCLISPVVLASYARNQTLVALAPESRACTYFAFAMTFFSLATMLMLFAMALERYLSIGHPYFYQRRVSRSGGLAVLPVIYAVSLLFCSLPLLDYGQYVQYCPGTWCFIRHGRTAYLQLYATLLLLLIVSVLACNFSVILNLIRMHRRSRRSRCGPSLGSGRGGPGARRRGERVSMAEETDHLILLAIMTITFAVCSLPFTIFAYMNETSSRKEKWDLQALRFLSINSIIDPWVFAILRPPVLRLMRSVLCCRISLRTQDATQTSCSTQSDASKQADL

IC50 ([1]; read-out: Antagonism hEP2 IC50)	IC50 ([1]; read-out: IC50)	Selectivity hEP2/hEP4 [2]	Compound	suppression of the cumulus expansion (cumulus-oocyte complexes; 0.5 μM, PGE2 0.3 μM)	inhibition at 1 µM (cumulus-oocyte complexes)	inhibition at 0.5 µM (cumulus-oocyte complexes)
3.44 nM	3.4 nM	xxx (xxx > 100)	COCCNC(=O)c1ccc2nn(CC3CCN(C(=O)c4ccc(Oc5ccc(C(F)(F)F)cc5)cc4)CC3)cc2c1C [Example 17, N-(2-methoxyethyl)-4-methyl-2-[(1-{4-[4-(trifluoromethyl)-phenoxy]benzoyl}-piperidin-4-yl)-methyl]-2H-indazol-5-carboxamide]	ca. 70%	76%	71%
17.8 nM	–	xxx (xxx > 100)	COCCNC(=O)c1ccc2nn(CC3CN(C(=O)c4ccc(Cl)cc4)C3)cc2c1C [Example 117, 2-{[1-(4-chlorobenzoyl)azetidin-3-yl]methyl}-N-(2-methoxyethyl)-4-methyl-2H-indazol-5-carboxamide]	–	54%	30%
65.5 nM	–	xxx (xxx > 100)	Cc1c(C(=O)NCC(F)(F)F)ccc2nn(CC3CCN(C(=O)c4ccc(Oc5ccc(F)cc5)cc4)CC3)cc12 [Example 283, 2-({1-[4-(4-fluorophenoxy)benzoyl]piperidin-4-yl}methyl)-4-methyl-N-(2,2,2-trifluoroethyl)-2H-indazol-5-carboxamide]	–	26%	25%
4.75 nM	–	xxx (xxx > 100)	COCCNC(=O)c1ccc2nn(CC3CCN(C(=O)c4ccc(-c5ccc(F)cc5)cc4F)CC3)cc2c1C [Example 42, 2-({1-[(3,4′-difluoro-biphenyl-4-yl)-carbonyl]piperidin-4-yl}methyl)-N-(2-methoxyethyl)-4-methyl-2H-indazol-5-carboxamide]	–	79%	48%
